Results: patent US20220339257A1, “METHODS TO INCREASE THE SENSITIVITY AND REVERSING THE RESISTANCE TO DRUGS” (Biomarker Strategies, LLC, priority 2019, published 2022)

Tests used:
Assay type in all cases: cell-based
[1] = system: panel of cell lines that included NSCLC, HNSCC, melanoma, and CRC; assay: WST8 in vitro sensitivity to MTAs with and without EM
Description: (§1) Day 1: cells were harvested cells from flask (4 mL accutase for T175 for 3-5 minutes), and spin down for 5 mins at 1200 rpm. The supernatant was poured off, and the pellet gently resuspended in 1 mL media. Countess counts were performed, and the cells were diluted in media (10% FBS). With multi-channel pipette, 2500 cells were seeded in 100 uL of media (10% FBS) in each well of 96 well plate. The cells were let to adhere and grow for 24 hours. Day 2: serial drug dilutions of MTAs+/−EMs at 5× of concentrations (as done above) were performed in media (10% FBS). 20 uL of media form each well of the 96 well plate (80 uL media left in wells) was removed, and 20 uL of appropriate 5× drug dilutions was added to each respective well (for a 1× conc). The cells were incubated with drug for 72 hours in 37C incubator. Day 5: 10 uL of WST-8 reagent was added to each well of the 96 well plate and mixed gently. the plates were incubated up to 4 hours at 37C in dark, and absorbance readings were taken at […] and 600 nm wavelengths at 1, 2, 3 and 4h, until control absorbance levels were 1.5-2.0).
We used a panel of cell lines that included NSCLC, HNSCC, melanoma, and CRC. These cell lines are a good model system harboring similar (epi)genetic changes found in patients' tumors. We used the WST8 assay to determine the in vitro sensitivity to various MTAs with and without EM1.

[2] = system: CAL27 cells; assay: Western blot of protein biomarkers; conditions: GSK-795 (10 nM)+IFN-γ (50 ng/mL)
Description: (§2) MTA and EM effects on protein biomarker expression were measured by western blotting. For the assay cell lines (Ca9-22, PE/CA-PJ15, HTB-38, HPAF-II, CAL27, BICR-16, A-253, Calu-6, PC-9, H1838, RPMI-7951 and A7) were cultured and treated with doses of MTAs alone, EMs alone and in combination and then lysed for protein analysis. This method can readily be conducted under adherent or suspension conditions, manually or on automated instruments, such as SnapPath. A total of 0.3×10^6 cells per well were seeded in 6 well plates with 10% FBS-containing media and incubated for 24 hours. Cells were then treated with MTA and/or EM concentrations for 24 hours. For total protein extraction, briefly, each sample media was collected, and wells were washed with HMS, and the wash was combined with its respective media collection. Cells were then detached using Accutase solution and again collected in its respective sample media and another HMS well wash and collection was performed. All cell solutions were centrifuged, washed with ice-cold PBS, and centrifuged again. Cell pellets were lysed in 250 μL of ice-cold 1× lysis buffer with protease and phosphatase inhibitor cocktails and incubated for 10 minutes on ice. Lysates were clarified with a centrifugation (14,000 rpm) for 10 minutes at 4° C. Cell lysates were quantified using Bio-Rad DC Protein Assay (Bio-Rad Cat. #5000116).
(§3) For all western blots, an equal amount of protein (3-5 μg) was loaded into SDS-polyacrylamide gels (Mini-Protean TGX Precast Gel; Bio-Rad, e.g. 7.5%, Cat. #4561024; 10%, Cat. #4561035; 12%, Cat. #4561045; or 4-15%, Cat. #4561085). Proteins were separated at 215V for at least 30 minutes in 1× Tris/Glycine/SDS buffer (Bio-Rad Cat. #1610772) and transferred to PVDF membranes using a Trans-Blot Turbo (Bio-Rad Cat. #1704155) for 7 minutes in transfer buffer (Trans-Blot Turbo Transfer Kit, Bio-Rad Cat. #1704273). Blots were blocked at room temperature for 1 hour with 5% non-fat dry milk in tris-buffered saline with Tween 20 (TBST; 15 mM Tris-HCl, pH 7.5, 200mMNaCl and 0.1% Tween 20). Membranes were incubated with primary antibodies at 4° C. overnight and at room temperature for 1 hour the next day; all primary antibodies were diluted following manufacturer's specifications in TBST with either 5% BSA or 5% non-fat dry milk. Membranes were washed in TBST for 5 minutes, three times, and incubated with HRP-conjugated secondary antibodies diluted 1:5000 in TBST with 5% non-fat dry milk at room temperature for 1 hour (anti-rabbit IgG, Bio-Rad Cat. #1706515; or anti-mouse IgG, Bio-Rad Cat. #1706516). Membranes were then washed in TBST for 10 minutes, three times, and target proteins were identified using Clarity Western ECL Substrate (Bio-Rad Cat. #1705061) on autoradiography film (GenHunter Cat. #B581, Nashville, Tenn., USA). Other assay types, such as Luminex multiplexed immunoassays, ICC, IHC, flow cytometry, etc. can be used readily.

[3] = system: CAL27; assay: WST-8 cell viability assay; conditions: in combination with GSK-795, 72 hours
Description: as §1
(§4) WST-8 Assay: MTA and EM effects on cell viability were measured by Cell Counting Kit8 (WST-8) colorimetric assay using water-soluble tetrazolium salt WST-8 reagent (Vita Scientific Cat. #DBOC00128). For the assay, cells were seeded in 96-well plates at 2,500 cells per well, in 100 μL of 10% FBS-containing media. After 24 hours, a 1 nM to 10 μM range of MTA and/or 1 ng/mL to 1 mg/mL range of EM doses was added and incubated for 72 hours. After treatment, a 10% volume of WST-8 reagent was added to each well and cells were incubated at 37° C. for up to 4 hours. Solution absorbance was measured at wavelengths of 450 nm and 600 nm at 1-, 2-, 3-, and 4-hour's incubation. Percentage viability of drug-treated cells was calculated relative to untreated control cells. Results were confirmed by three independent experiments.
(§5) For studying the effects of various molecularly targeted agents (MTAs) and enhancer molecules (EMs) alone as well as in combination: HCC827, PC-9, A427, Calu-6, H2228, H358, H1299, H460, H292, H1838, H2170, and H226 (non-small cell lung cancer; NSCLC); and SK-MES-1 […], CAL27, OE21, KYSE-70, A-253, BICR-16, PE/CA-PJ15 and Ca9-22 (head and neck squamous cell carcinoma; HNSCC); SK-MEL-2, SK-MEL-28, RPMI-7951 and A7 (melanoma); HTB-38 and HCT116 (colorectal cancer; CRC); BxPC-3 and HPAF-II (pancreatic cancer); HEPG2 (hepatocellular carcinoma; HCC); A498 (renal cell carcinoma; RCC) cells were used. Other cell lines, including those from other cancer types, or cells collected from more complex sample types such as xenografts and clinical samples can be used. Ultimately, these combinations can be utilized in various clinical and pre-clinical samples and studies. Using the WST-8 cell viability assay, a MTA+EM-induced anti-cancer/anti-growth activity in multiple cell lines was discovered (FIGS. 8-15). Other viability assays, for example, MTT, HoPI staining, dye exclusion (e.g. trypan blue), can be used readily. […] The cut-off value for classifying a “strong anti-cancer/anti-growth enhancement” was a response resulting in >70% reduction in cell survival compared to untreated control cells (100%), while showing greater reduction compared to both MTA and EM alone.

[4] = system: BxPC-3; assay: WST-8 cell viability assay; conditions: in combination with GSK-458, 72 hours
Description: as §1, §4, §5

[5] = system: HPAF-II; assay: WST-8 cell viability assay
Description: as §1, §4, §5

[6] = system: HTB-38; assay: WST-8 cell viability assay
Description: as §1, §4, §5

[7] = system: OE21; assay: WST-8 cell viability assay; conditions: in combination with trametinib, 72 hours
Description: as §1, §4, §5

[8] = system: BICR-16; assay: WST-8 cell viability assay; conditions: in combination with GSK-458, 72 hours
Description: as §1, §4, §5

[9] = system: Calu-6; assay: WST-8 cell viability assay
Description: as §1, §4, §5

[10] = system: HPAF-II cells; assay: Western blot of protein biomarkers; conditions: trametinib (100 nM)+IL-17 (10 ng/mL), 24 hours
Description: as §2, §3

[11] = system: Ca9-22 cells; assay: Western blot of protein biomarkers; conditions: osimertinib (100 nM)+IL-17 (10 ng/mL)
Description: as §2, §3

[12] = system: A-253; assay: WST-8 cell viability assay; conditions: in combination with spermidine, 72 hours
Description: as §1, §4, §5

[13] = system: H2170; assay: WST-8 cell viability assay; conditions: in combination with GSK-458, 72 hours
Description: as §1, §4, §5

[14] = system: Ca9-22; assay: WST-8 cell viability assay; conditions: in combination with osimertinib, 72 hours
Description: as §1, §4, §5

[15] = system: Calu-6 cells; assay: Western blot of protein biomarkers; conditions: GSK-458 (100 nM)+TNF-β (50 ng/mL), 24 hours
Description: as §2, §3

[16] = 24 hours, compared to either MTA or EM alone
[17] = compared to either therapy alone
[18] = in combination with GSK-458, 72 hours
[19] = in combination with trametinib, 72 hours

interferon-gamma [EM1, enhancer molecule, cytokine purchased from Sigma]
response enhancement (in vitro sensitivity to various MTAs with and without EM, WST8) [1]: no, minimal and strong response enhancement | p-AKT (Ser473) expression [2, 16]: strong reduction in p-AKT (Ser473) expression | LC3II over LC3I expression ([2]; 24 hours, compared to either alone): marked increase in LC3II over LC3I expression | p62 expression [2, 17]: reduced p62 expression | anti-cancer/growth enhancement (WST-8 cell viability) [3]: moderate-to-strong anti-cancer/growth enhancement | anti-cancer/growth enhancement (WST-8 cell viability) [4]: moderate-to-strong anti-cancer/growth enhancement | anti-cancer/growth enhancement (WST-8 cell viability) [5, 18]: moderate-to-strong anti-cancer/growth enhancement | anti-cancer/growth enhancement (WST-8 cell viability) [5, 19]: moderate-to-strong anti-cancer/growth enhancement | anti-cancer/growth enhancement (WST-8 cell viability) [6, 18]: moderate-to-strong anti-cancer/growth enhancement | anti-cancer/growth enhancement (WST-8 cell viability) ([6]; in combination with dabrafenib, 72 hours): moderate-to-strong anti-cancer/growth enhancement | anti-cancer/growth enhancement (WST-8 cell viability) [6, 19]: moderate-to-strong anti-cancer/growth enhancement | anti-cancer/growth enhancement (WST-8 cell viability) [7]: moderate-to-strong anti-cancer/growth enhancement | anti-cancer/growth enhancement (WST-8 cell viability) [8]: moderate-to-strong anti-cancer/growth enhancement | anti-cancer/growth enhancement (WST-8 cell viability) ([9]; in combination with GSK-795, 72 hours): moderate-to-strong anti-cancer/growth enhancement

interleukin 17 [EM5]
PARP cleavage ([10]; compared to MTA and EM alone): very strong PARP cleavage | p-AKT (Ser473) expression ([10]; compared to either MTA or EM alone): strong reduction in p-AKT (Ser473) expression | Ki67 degradation and/or fragmentation pattern [10, 17]: marked increase in the distinct degradation and/or fragmentation pattern of Ki67 | p-AKT (Ser473) expression [11, 16]: strong reduction in p-AKT (Ser473) expression | Ki67 expression ([11]; compared to both MTA and EM alone): enhanced reduction in Ki67 expression | anti-cancer/growth enhancement (WST-8 cell viability) [5, 19]: moderate-to-strong anti-cancer/growth enhancement | anti-cancer/growth enhancement (WST-8 cell viability) [12]: moderate-to-strong anti-cancer/growth enhancement | anti-cancer/growth enhancement (WST-8 cell viability) [13]: moderate-to-strong anti-cancer/growth enhancement | anti-cancer/growth enhancement (WST-8 cell viability) [14]: moderate-to-strong anti-cancer/growth enhancement | anti-cancer/growth enhancement (WST-8 cell viability) [9, 19]: moderate-to-strong anti-cancer/growth enhancement

B1: tumor necrosis factor-beta (protein, UniProt P01374 35-205, looked up)
Lymphotoxin-alpha: LPGVGLTPSAAQTARQHPKMHLAHSTLKPAAHLIGDPSKQNSLLWRANTDRAFLQDGFSLSNNSLLVPTSGIYFVYSQVVFSGKAYSPKATSSPLYLAHEVQLFSSQYPFHVPLLSSQKMVYPGLQEPWLHSMYHGAAFQLTQGDQLSTHTDGIPHLVLSPSTVFFGAFAL
notes: enhancer molecule, cytokine purchased from Sigma
PARP cleavage ([15]; compared to MTA and EM alone): very strong PARP cleavage | Ki67 degradation and/or fragmentation pattern [15, 17]: marked increase in the distinct degradation and/or fragmentation pattern of Ki67 | anti-cancer/growth enhancement (WST-8 cell viability) [14]: anti-cancer/growth enhancement
